Like-named read-outs stand apart in the source and are kept apart here.
Legend:
[1] = in vitro; details: human
[2] = system: HRV-B14; test: microbe, parasite or virus in culture; assay type: cell-based, human rhinovirus; details: Human rhinovirus sp.
[3] = system: representative EVs and RVs; assay type: cell-based
[4] = system: HRV-A2; test: microbe, parasite or virus in culture; assay type: cell-based, human rhinovirus; details: Human rhinovirus sp., HRVA2, HeLa R19, read-out: EC50 HRV-A2
[5] = system: EV-A71; test: microbe, parasite or virus in culture; assay type: cell-based, enterovirus A71; details: Enterovirus A
[6] = system: CV-B3; test: microbe, parasite or virus in culture; assay type: cell-based, coxsackievirus B3; details: Enterovirus B
[7] = system: CV-B3; test: microbe, parasite or virus in culture; assay type: cell-based, coxsackievirus B3; details: Enterovirus B, CVB3, BGM
[8] = system: PV-1; test: microbe, parasite or virus in culture; assay type: cell-based, poliovirus 1; details: Enterovirus C
[9] = in vitro; details: human; remark: listed apart in the source
[10] = system: HeLa R19 cells
[11] = system: CV-B3; test: microbe, parasite or virus in culture; assay type: cell-based, coxsackievirus B3; details: for EC50: Enterovirus B
[12] = system: EV-D68; test: microbe, parasite or virus in culture; assay type: cell-based, enterovirus D68; details: Enterovirus D
[13] = system: CV-A24; test: microbe, parasite or virus in culture; assay type: cell-based, coxsackievirus A24; details: Enterovirus C
[14] = in vitro; details: monkey
[15] = HRVB14, HeLa R19, read-out: EC50 HRV-B14
[16] = EVA71, HeLa R19, read-out: EC50 EV-A71
[17] = EVA71, HeLa R19, read-out: EC50 Exp1
[18] = EVA71, HeLa R19, read-out: EC50 Exp2
[19] = CVB3, HAP1, read-out: EC50 Hap1 Average
[20] = CVB3, HAP1, read-out: Exp 1 EC50 Hap1
[21] = CVB3, HAP1, read-out: Exp 2 EC50 Hap1
[22] = CVB3, HeLa R19, read-out: CV-B3 EC50 Average
[23] = CVB3, HeLa R19, read-out: CV-B3 Exp 1 EC50
[24] = CVB3, HeLa R19, read-out: CV-B3 Exp2 EC50
[25] = CVB3, HeLa R19, read-out: Exp 1 EC50 HelaR19
[26] = CVB3, HeLa R19, read-out: Exp 2 EC50 HelaR19
[27] = EVD68, HeLa R19, read-out: EC50 EV-D68
[28] = EVD68, HeLa R19, read-out: EC50 Exp1
[29] = EVD68, HeLa R19, read-out: EC50 Exp2
[30] = CVA24, HeLa R19, read-out: EC50 Exp1
[31] = CVA24, HeLa R19, read-out: EC50 Exp2

## O=C(c1ccco1)N(Cc1ccccc1)c1ccccc1 [Compound 19a, N-Benzyl-N-phenylfuran-2-carboxamide]
[1]; CC50 Average
  CC50: > 30000 nM
[1]; CC50 HelaR19 Average
  CC50: > 100000 nM
[1]; Exp 1 CC50
  CC50: > 30000 nM
[1]; Exp 1 CC50 HelaR19
  CC50: > 100000 nM
[1]; Exp2 CC50
  CC50: > 30000 nM
[1]; Exp 2 CC50 HelaR19
  CC50: > 100000 nM
[2]; [15]
  EC50: > 30000 nM
[3]
  spectrum of antiviral activity (in words): anti-EV activity but not anti-RV activity
[4]
  EC50: > 30000 nM
[5]; [16]
  EC50: 3500 ± 310 nM
[5]; [17]
  EC50: 3190 nM
[5]; [18]
  EC50: 3800 nM
[6]; [19]
  EC50: 730 nM
[6]; [20]
  EC50: 480 nM
[6]; [21]
  EC50: 970 nM
[7]; read-out: EC50 BGM Average
  EC50: 1840 nM
[7]; read-out: Exp 1 EC50 BGM
  EC50: 1900 nM
[7]; read-out: Exp 2 EC50 BGM
  EC50: 1770 nM
[8]; HeLa R19, read-out: EC50 Exp1
  EC50: 31500 nM
[8]; HeLa R19, read-out: EC50 Exp2
  EC50: 33600 nM
[8]; HeLa R19, read-out: EC50 PV-1
  EC50: 32600 ± 1080 nM
[9]; CC50
  CC50: > 100000 nM
[9]; CC50 Hap1 Average
  CC50: > 100000 nM
[9]; Exp 1 CC50 Hap1
  CC50: > 100000 nM
[9]; Exp 2 CC50 Hap1
  CC50: > 100000 nM
[10]
  cytotoxicity (in words): did not show any cytotoxicity
[11]
  increase or decrease of antiviral activity against CV-B3: less than 3 fold
[11]; [22]
  EC50: 910 nM
[11]; [23]
  EC50: 880 nM
[11]; [24]
  EC50: 940 nM
[11]; CVB3, HeLa R19, read-out: EC50 HelaR19 Average
  EC50: 1620 nM
[11]; [25]
  EC50: 1250 nM
[11]; [26]
  EC50: 1980 nM
[12]; [27]
  EC50: 1340 ± 450 nM
[12]; [28]
  EC50: 1790 nM
[12]; [29]
  EC50: 890 nM
[13]; CVA24, HeLa R19, read-out: EC50 CV-A24
  EC50: 21480 ± 30 nM
[13]; [30]
  EC50: 21500 nM
[13]; [31]
  EC50: 21400 nM
[14]; CC50
  CC50: > 100000 nM
[14]; CC50 BGM Average
  CC50: > 100000 nM
[14]; Exp 1 CC50 BGM
  CC50: > 100000 nM
[14]; Exp 2 CC50 BGM
  CC50: > 100000 nM

## Cc1ccc(CN(C(=O)c2ccco2)c2ccccc2)cc1 [Compound 19g, N-(4-Methylbenzyl)-N-phenylfuran-2-carboxamide]
[1]; CC50 Average
  CC50: > 30000 nM
[1]; CC50 HelaR19 Average
  CC50: > 100000 nM
[1]; Exp 1 CC50
  CC50: > 30000 nM
[1]; Exp 1 CC50 HelaR19
  CC50: > 100000 nM
[1]; Exp2 CC50
  CC50: > 30000 nM
[1]; Exp 2 CC50 HelaR19
  CC50: > 100000 nM
[2]; HRVB14, HeLa R19, read-out: EC50 Average
  EC50: 12600 nM
[2]; HRVB14, HeLa R19, read-out: EC50 Exp1
  EC50: 13600 nM
[2]; HRVB14, HeLa R19, read-out: EC50 Exp2
  EC50: 11500 nM
[2]; [15]
  EC50: 12500 ± 1050 nM
[3]
  spectrum of antiviral activity (in words): anti-EV activity but not anti-RV activity
[4]
  EC50: > 30000 nM
[5]; [16]
  EC50: 600 ± 140 nM
[5]; [17]
  EC50: 460 nM
[5]; [18]
  EC50: 730 nM
[6]; [19]
  EC50: 2380 nM
[6]; [20]
  EC50: 2080 nM
[6]; [21]
  EC50: 2680 nM
[7]
  EC50: 1700 ± 260 nM
[7]; read-out: EC50 BGM Average
  EC50: 1690 nM
[7]; read-out: Exp 1 EC50 BGM
  EC50: 1950 nM
[7]; read-out: Exp 2 EC50 BGM
  EC50: 1440 nM
[8]; HeLa R19, read-out: EC50 Exp1
  EC50: 16500 nM
[8]; HeLa R19, read-out: EC50 Exp2
  EC50: 18500 nM
[8]; HeLa R19, read-out: EC50 PV-1
  EC50: 17500 ± 1000 nM
[9]; CC50
  CC50: > 100000 nM
[9]; CC50 Hap1 Average
  CC50: > 100000 nM
[9]; Exp 1 CC50 Hap1
  CC50: > 100000 nM
[9]; Exp 2 CC50 Hap1
  CC50: > 100000 nM
[10]
  cytotoxicity (in words): did not show any cytotoxicity
[11]
  effect of the substitution on antiviral activity against CV-B3 (in words): only marginally affected antiviral activity
[11]; [22]
  EC50: 880 nM
[11]; [23]
  EC50: 860 nM
[11]; [24]
  EC50: 890 nM
[11]; [25]
  EC50: 1020 nM
[11]; [26]
  EC50: 1690 nM
[12]; EVD68, HeLa R19, read-out: EC50 Average
  EC50: 1480 nM
[12]; [27]
  EC50: 1490 ± 80 nM
[12]; [28]
  EC50: 1560 nM
[12]; [29]
  EC50: 1410 nM
[13]; [30]
  EC50: 9290 nM
[13]; [31]
  EC50: 11000 nM
[14]; CC50
  CC50: > 100000 nM
[14]; CC50 BGM Average
  CC50: > 100000 nM
[14]; Exp 1 CC50 BGM
  CC50: > 100000 nM
[14]; Exp 2 CC50 BGM
  CC50: > 100000 nM
